From PubChem BioAssay AID2060912 (Molecular Pharmacology Branch, DTP, NCI, 2025)
pIC50: −log10 of the molar value.

System: HUVEC/MSC spheroids viability
Experiment: Human HUVEC/MSC cell line growth inhibition [KRAS2];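 as to viability, T/C: percent of DMSO vehicle control luminescence so 100% = untreated viability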
Conditions: for pIC50: curve of first compound; for viability, T/C: stronger effect = lower value
Procedure, shortened: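 HUVEC + hMSC stromal spheroids only, no malignant cells; 37 °C, 5% CO2. Drugs singly and in pairs, half-log series down from clinical Cmax (max 10 microM if Cmax undetermined).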

[1] = second compound 0.0316 µM, first compound 0.0316 µM
[2] = second compound 0.0316 µM, first compound 0.1 µM
[3] = second compound 0.0316 µM, first compound 0.316 µM
[4] = second compound 0.0316 µM, first compound 1 µM
[5] = second compound 0.1 µM, first compound 0.0316 µM
[6] = second compound 0.1 µM, first compound 0.1 µM
[7] = second compound 0.1 µM, first compound 0.316 µM
[8] = second compound 0.1 µM, first compound 1 µM
[9] = second compound 0.316 µM, first compound 0.0316 µM
[10] = second compound 0.316 µM, first compound 0.1 µM
[11] = second compound 0.316 µM, first compound 0.316 µM
[12] = second compound 0.316 µM, first compound 1 µM
[13] = second compound 1 µM, first compound 0.0316 µM
[14] = second compound 1 µM, first compound 0.1 µM
[15] = second compound 1 µM, first compound 0.316 µM
[16] = second compound 1 µM, first compound 1 µM
[17] = second compound 3.16 µM, first compound 0.0316 µM
[18] = second compound 3.16 µM, first compound 0.1 µM
[19] = second compound 3.16 µM, first compound 0.316 µM
[20] = second compound 3.16 µM, first compound 1 µM
[21] = second compound 10 µM, first compound 0.0316 µM
[22] = second compound 10 µM, first compound 0.1 µM
[23] = second compound 10 µM, first compound 0.316 µM
[24] = second compound 10 µM, first compound 1 µM

`CCN1CCN(Cc2ccc(Nc3ncc(F)c(-c4cc(F)c5nc(C)n(C(C)C)c5c4)n3)nc2)CC1` + COc1cc2nc(C)nc(NC(C)c3cc(N)cc(C(F)(F)F)c3)c2cc1OC1CCOC1 gave a pIC50 (second compound 0.0316 µM) of less than 6.00, a pIC50 (second compound 0.1 µM) of less than 6.00 and a pIC50 (second compound 0.316 µM) of less than 6.00. For the same compound, the pIC50 (second compound 1 µM) was less than 6.00, the pIC50 (second compound 3.16 µM) was less than 6.00 and the pIC50 (second compound 10 µM) was less than 6.00. For the same compound, the viability, T/C (second compound 0.0316 µM, first compound 0.00316 µM) was 93.3%, the viability, T/C (second compound 0.0316 µM, first compound 0.01 µM) was 77% and the viability, T/C [1] was 87.6%. The viability, T/C [2] was 80.3%, the viability, T/C [3] was 93.4% and the viability, T/C [4] was 122%. It also gave a viability, T/C (second compound 0.1 µM, first compound 0.00316 µM) of 77.7%, a viability, T/C (second compound 0.1 µM, first compound 0.01 µM) of 90.9% and a viability, T/C [5] of 83.1%. It also gave a viability, T/C [6] of 73.7%, a viability, T/C [7] of 105% and a viability, T/C [8] of 106%. The viability, T/C (second compound 0.316 µM, first compound 0.00316 µM) was 72.5%, the viability, T/C (second compound 0.316 µM, first compound 0.01 µM) was 92.5% and the viability, T/C [9] was 79.4%. The viability, T/C [10] was 79%, the viability, T/C [11] was 96.1% and the viability, T/C [12] was 121%. The viability, T/C (second compound 1 µM, first compound 0.00316 µM) was 76.1%, the viability, T/C (second compound 1 µM, first compound 0.01 µM) was 68.8% and the viability, T/C [13] was 71.2%. It also gave a viability, T/C [14] of 77.2%, a viability, T/C [15] of 95.7% and a viability, T/C [16] of 117%. It also gave a viability, T/C (second compound 3.16 µM, first compound 0.00316 µM) of 65.8%, a viability, T/C (second compound 3.16 µM, first compound 0.01 µM) of 74.4% and a viability, T/C [17] of 65.4%. The viability, T/C [18] was 69.9%, the viability, T/C [19] was 77% and the viability, T/C [20] was 103%. It also gave a viability, T/C (second compound 10 µM, first compound 0.00316 µM) of 63.7%, a viability, T/C (second compound 10 µM, first compound 0.01 µM) of 76.7% and a viability, T/C [21] of 65.7%. The viability, T/C [22] was 56.4%, the viability, T/C [23] was 66.5% and the viability, T/C [24] was 75%.
Compound `Cn1nccc1Nc1nccc(-c2cc3c(s2)C(C)(C)N(CCN2CCOCC2)C3=O)n1` + CNCc1ccccc1-c1csc(C(C)Nc2nc(C)nc3cc(OC)c(OC)cc23)c1 has a pIC50 (second compound 0.0316 µM) of 5.67, a pIC50 (second compound 0.1 µM) of 5.60 and a pIC50 (second compound 0.316 µM) of 5.59. It also gave a pIC50 (second compound 1 µM) of 5.62, a pIC50 (second compound 3.16 µM) of 5.71 and a pIC50 (second compound 10 µM) greater than 7.50. The viability, T/C [1] was 94.5%, the viability, T/C [2] was 119% and the viability, T/C [3] was 117%. The viability, T/C [4] was 94.7%, the viability, T/C (second compound 0.0316 µM, first compound 3.16 µM) was 26.9% and the viability, T/C (second compound 0.0316 µM, first compound 10 µM) was 3.31%. It also gave a viability, T/C [5] of 85.8%, a viability, T/C [6] of 103% and a viability, T/C [7] of 105%. For the same compound, the viability, T/C [8] was 110%, the viability, T/C (second compound 0.1 µM, first compound 3.16 µM) was 36.7% and the viability, T/C (second compound 0.1 µM, first compound 10 µM) was 3.17%. It also gave a viability, T/C [9] of 88.2%, a viability, T/C [10] of 96.1% and a viability, T/C [11] of 103%. For the same compound, the viability, T/C [12] was 111%, the viability, T/C (second compound 0.316 µM, first compound 3.16 µM) was 39.6% and the viability, T/C (second compound 0.316 µM, first compound 10 µM) was 1.89%. For the same compound, the viability, T/C [13] was 83%, the viability, T/C [14] was 90.5% and the viability, T/C [15] was 103%. It also gave a viability, T/C [16] of 96.7%, a viability, T/C (second compound 1 µM, first compound 3.16 µM) of 36.2% and a viability, T/C (second compound 1 µM, first compound 10 µM) of 0.95%. For the same compound, the viability, T/C [17] was 102%, the viability, T/C [18] was 135% and the viability, T/C [19] was 128%. The viability, T/C [20] was 99.9%, the viability, T/C (second compound 3.16 µM, first compound 3.16 µM) was 15.4% and the viability, T/C (second compound 3.16 µM, first compound 10 µM) was 0.23%. For the same compound, the viability, T/C [21] was 0.35%, the viability, T/C [22] was 0.4% and the viability, T/C [23] was 0.48%. It also gave a viability, T/C [24] of 0.37%, a viability, T/C (second compound 10 µM, first compound 3.16 µM) of 0.37% and a viability, T/C (second compound 10 µM, first compound 10 µM) of 0.19%.
With `CNCc1ccccc1-c1csc(C(C)Nc2nc(C)nc3cc(OC)c(OC)cc23)c1` (stereo not drawn) the viability, T/C (compound 0.0316 µM) was 88.4% [middle of 9 runs], the viability, T/C (compound 0.316 µM) was 84.6% [middle of 9 runs] and the viability, T/C (compound 10 µM) was 0.41% [middle of 8 runs]. The IC50 (compound alone, run of 05/05/2024) was 5.29 µM [middle of 8 runs].
